Tests used:
[1] = Use of PQQ for ameliorating or treating menstrual cycle disorders (oral tablets, six months, vitamin C control); type: in vivo, human; settings: preliminary experimental data
Protocol: (§1) The criteria for menstrual cycle disorders are as follows: 1. Early menstruation: Early menstruation refers to a shortened menstrual cycle that is shorter than 21 days and occurs for more than two consecutive cycles. It is a biphasic basal body temperature of ovulatory functional uterine bleeding, a short follicular phase of only 7 or 8 days; or a luteal phase of less than 10 days, or a temperature rise of less than 0.5° C. 2. Delayed menstruation: Menstruation is missed for more than 7 days, or even 40-50 days, and symptoms appear for more than 2 menstrual cycles. […] 3. Prolonged menstruation: The symptoms of this type of menstrual disorder are mainly a normal menstrual cycle but a prolonged menstrual period, lasting more than 7 days, or even up to 2 weeks before ending. Those with inflammation usually experience lower abdominal pain, which is aggravated during menstruation. Usually, the amount of leucorrhea is heavy, yellow or yellowish-white, thick, and odorous. Those with incomplete corpus luteum atrophy are also accompanied by heavy menstruation; those with prolonged endometrial repair still experience a small amount of persistent vaginal bleeding after the normal menstrual period. 4. Irregular menstruation: Menstruation is early or late, and the cycle is shorter than 21 days or longer than 35 days. No endometriosis. […]

[2] = Use of PQQ for preventing menstrual cycle disorders (oral tablets, six months, vitamin C control); type: in vivo, human; settings: preliminary experimental data
Protocol: as §1

O=C(O)c1cc(C(=O)O)c2c(n1)C(=O)C(=O)c1cc(C(=O)O)[nH]c1-2 [PQQ, 4,5-dioxo-1H-pyrrolo[2,3-f]quinoline-2,7,9-tricarboxylic acid]
effect on alleviating or treating menstrual cycle disorders compared with a placebo [1]: significant effect
effect on preventing menstrual cycle disorders compared with a placebo [2]: significant effect

— patent publication US20260144786A1, “METHOD FOR TREATING MENSTRUAL CYCLE DISORDERS” (Guangzhou HuTong Youwu Biotechnology Co., Ltd, priority 2023, published 2026)
